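Method: 48-hour compound exposure of cells in 96-well plates, five concentrations, linear interpolation of endpoints. GI50 = concentration required for 50% inhibition of growth. At the TGI there is no net growth.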
How the values were obtained:
Assay in all cases: DTP human tumour cell line panel, 48 h
CAKI-1 renal = test system: CAKI-1 renal
OVCAR-4 ovarian = test system: OVCAR-4 ovarian
SN12C renal = test system: SN12C renal
MCF7 breast = test system: MCF7 breast
HL-60(TB) leukemia = test system: HL-60(TB) leukemia
UACC-62 melanoma = test system: UACC-62 melanoma
A549 NSCLC = test system: A549 NSCLC
HCT-116 colon = test system: HCT-116 colon
IGROV1 ovarian = test system: IGROV1 ovarian
SK-MEL-5 melanoma = test system: SK-MEL-5 melanoma
M14 melanoma = test system: M14 melanoma
NCI/ADR-RES ovarian = test system: NCI/ADR-RES ovarian
K-562 leukemia = test system: K-562 leukemia
SF-295 CNS = test system: SF-295 CNS
PC-3 prostate = test system: PC-3 prostate
UO-31 renal = test system: UO-31 renal
SK-MEL-28 melanoma = test system: SK-MEL-28 melanoma
SK-MEL-2 melanoma = test system: SK-MEL-2 melanoma
CCRF-CEM leukemia = test system: CCRF-CEM leukemia
TK-10 renal = test system: TK-10 renal
HCC-2998 colon = test system: HCC-2998 colon
HCT-15 colon = test system: HCT-15 colon
MDA-MB-231 breast = test system: MDA-MB-231 breast
KM12 colon = test system: KM12 colon
LOX IMVI melanoma = test system: LOX IMVI melanoma
RXF 393 renal = test system: RXF 393 renal
NCI-H226 lung = test system: NCI-H226 lung
HT29 colon = test system: HT29 colon
SR leukemia = test system: SR leukemia
MALME-3M melanoma = test system: MALME-3M melanoma
OVCAR-8 ovarian = test system: OVCAR-8 ovarian
OVCAR-3 ovarian = test system: OVCAR-3 ovarian
BT-549 breast = test system: BT-549 breast
786-0 renal = test system: 786-0 renal
SK-OV-3 ovarian = test system: SK-OV-3 ovarian
NCI-H460 lung = test system: NCI-H460 lung
T-47D breast = test system: T-47D breast
SNB-75 CNS = test system: SNB-75 CNS
RPMI-8226 leukemia = test system: RPMI-8226 leukemia
U251 CNS = test system: U251 CNS
A498 renal = test system: A498 renal
UACC-257 melanoma = test system: UACC-257 melanoma
HOP-62 NSCLC = test system: HOP-62 NSCLC
ACHN renal = test system: ACHN renal
EKVX NSCLC = test system: EKVX NSCLC
MDA-MB-435 = test system: MDA-MB-435
NCI-H23 lung = test system: NCI-H23 lung
DU-145 prostate = test system: DU-145 prostate
SF-268 CNS = test system: SF-268 CNS
HS 578T breast = test system: HS 578T breast
MOLT-4 leukemia = test system: MOLT-4 leukemia
OVCAR-5 ovarian = test system: OVCAR-5 ovarian
SNB-19 CNS = test system: SNB-19 CNS
SW-620 colon = test system: SW-620 colon
HOP-92 NSCLC = test system: HOP-92 NSCLC
COLO 205 colon = test system: COLO 205 colon
SF-539 CNS = test system: SF-539 CNS

## Oc1ccccc1/C=N/Nc1nc(N/N=C/c2ccccc2O)nc(N2CCOCC2)n1
CAKI-1 renal
  GI50: 4.52 µM
  TGI: 46.5 µM
OVCAR-4 ovarian
  GI50: 2.48 µM
  TGI: 7.56 µM
SN12C renal
  GI50: 18.3 µM
  TGI: > 100 µM
MCF7 breast
  GI50: 2.39 µM
  TGI: > 100 µM
HL-60(TB) leukemia
  GI50: 0.193 µM
  TGI: > 100 µM
UACC-62 melanoma
  GI50: 24.5 µM
  TGI: > 100 µM
A549 NSCLC
  GI50: 2.88 µM
  TGI: 52.2 µM
HCT-116 colon
  GI50: 0.823 µM
  TGI: > 100 µM
IGROV1 ovarian
  GI50: 0.966 µM
  TGI: > 100 µM
SK-MEL-5 melanoma
  GI50: 5.86 µM
  TGI: > 100 µM
M14 melanoma
  GI50: 3.22 µM
  TGI: > 100 µM
NCI/ADR-RES ovarian
  GI50: 0.685 µM
  TGI: 9.37 µM
K-562 leukemia
  GI50: 0.683 µM
  TGI: > 100 µM
SF-295 CNS
  GI50: 7.67 µM
  TGI: > 100 µM
PC-3 prostate
  GI50: 3.61 µM
  TGI: > 100 µM
UO-31 renal
  GI50: 0.372 µM
  TGI: 18.7 µM
SK-MEL-28 melanoma
  GI50: 3.2 µM
  TGI: 49.9 µM
SK-MEL-2 melanoma
  GI50: 6.06 µM
  TGI: > 100 µM
CCRF-CEM leukemia
  GI50: 0.537 µM
  TGI: > 100 µM
TK-10 renal
  GI50: 44.9 µM
  TGI: > 100 µM
HCC-2998 colon
  GI50: 7.65 µM
  TGI: > 100 µM
HCT-15 colon
  GI50: 0.241 µM
  TGI: 16.2 µM
MDA-MB-231 breast
  GI50: 2.42 µM
  TGI: 30.9 µM
KM12 colon
  GI50: 33.2 µM
  TGI: > 100 µM
LOX IMVI melanoma
  GI50: 0.276 µM
  TGI: 0.873 µM
RXF 393 renal
  GI50: 0.272 µM
  TGI: 2.45 µM
NCI-H226 lung
  GI50: 3.92 µM
  TGI: 20.4 µM
HT29 colon
  GI50: 5.89 µM
  TGI: > 100 µM
SR leukemia
  GI50: 0.322 µM
  TGI: > 100 µM
MALME-3M melanoma
  GI50: 8.69 µM
  TGI: > 100 µM
OVCAR-8 ovarian
  GI50: 3.75 µM
  TGI: 34.5 µM
OVCAR-3 ovarian
  GI50: 3.42 µM
  TGI: > 100 µM
BT-549 breast
  GI50: 5.19 µM
  TGI: > 100 µM
786-0 renal
  GI50: 0.709 µM
  TGI: 15.3 µM
SK-OV-3 ovarian
  GI50: 3.7 µM
  TGI: 13.8 µM
NCI-H460 lung
  GI50: 2.3 µM
  TGI: 17.4 µM
T-47D breast
  GI50: 3.34 µM
  TGI: > 100 µM
SNB-75 CNS
  GI50: 1.82 µM
  TGI: 5.26 µM
RPMI-8226 leukemia
  GI50: 2.78 µM
  TGI: > 100 µM
U251 CNS
  GI50: 3.06 µM
  TGI: 22.3 µM
A498 renal
  GI50: 1.09 µM
  TGI: 8.58 µM
UACC-257 melanoma
  GI50: 6.53 µM
  TGI: > 100 µM
HOP-62 NSCLC
  GI50: 3.51 µM
  TGI: 23 µM
ACHN renal
  GI50: 1.58 µM
  TGI: 44.9 µM
EKVX NSCLC
  GI50: 3.28 µM
  TGI: 32 µM
MDA-MB-435
  GI50: 9.53 µM
  TGI: > 100 µM
NCI-H23 lung
  GI50: 4.31 µM
  TGI: 20.1 µM
DU-145 prostate
  GI50: 6.09 µM
  TGI: > 100 µM
SF-268 CNS
  GI50: 16.9 µM
  TGI: > 100 µM
HS 578T breast
  GI50: 3.24 µM
  TGI: 44.1 µM
MOLT-4 leukemia
  GI50: 1.55 µM
  TGI: > 100 µM
OVCAR-5 ovarian
  GI50: 6.41 µM
  TGI: > 100 µM
SNB-19 CNS
  GI50: 3.14 µM
  TGI: 14.9 µM
SW-620 colon
  GI50: 1.78 µM
  TGI: 23.4 µM
HOP-92 NSCLC
  GI50: 1.65 µM
  TGI: 6.01 µM
COLO 205 colon
  GI50: 5.53 µM
  TGI: > 100 µM
SF-539 CNS
  GI50: 7.29 µM
  TGI: > 100 µM

From PubChem BioAssay (NCI)
